Laboratory results published in article PMC2719767 (Bioorganic & medicinal chemistry, 2008).
Where a name gives a salt, the structure may show the parent alone. Blank lines part the entries; values can stand above or below the compound they belong to.

What was measured:
D2 receptor [1] = target: T1, D2 receptor (Homo sapiens, UniProt P14416); experiment: D2 receptor binding affinity, NIMH-PDSP
D3 receptor = D3 receptor (Homo sapiens, UniProt P35462); experiment: D3 receptor binding affinity, NIMH-PDSP
D4 receptor [2] = target: T2, D4 receptor (Homo sapiens, UniProt P21917); experiment: D4 receptor binding affinity, Pfizer laboratories; conditions: for D2/D4: Table 2, ratio of Ki values, Pfizer laboratories data
T2 sequence (P21917 1-419): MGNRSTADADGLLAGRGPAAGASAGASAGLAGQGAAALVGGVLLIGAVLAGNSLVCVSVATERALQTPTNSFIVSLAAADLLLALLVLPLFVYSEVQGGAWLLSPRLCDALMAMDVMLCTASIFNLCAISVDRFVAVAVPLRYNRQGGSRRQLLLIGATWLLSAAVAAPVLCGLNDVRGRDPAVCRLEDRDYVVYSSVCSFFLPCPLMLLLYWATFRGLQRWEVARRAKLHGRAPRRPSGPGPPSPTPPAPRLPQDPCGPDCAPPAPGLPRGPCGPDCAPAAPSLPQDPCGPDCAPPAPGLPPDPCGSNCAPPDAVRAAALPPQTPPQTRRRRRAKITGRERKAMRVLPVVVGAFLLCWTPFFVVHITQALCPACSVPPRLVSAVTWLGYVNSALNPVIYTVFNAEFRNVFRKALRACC

D4 receptor [3] = target: T2, D4 receptor; experiment: D4 receptor binding affinity, NIMH-PDSP
D4 receptor [4] = target: T2, D4 receptor; conditions: cloned human D2-like receptors; ref [11]; cited from earlier work
D2 receptor [5] = target: T1, D2 receptor; conditions: cloned human D2-like receptors; ref [11]; cited from earlier work
D2 receptor [6] = target: T1, D2 receptor; experiment: D2 receptor binding affinity, Pfizer laboratories; conditions: same assay procedure in the same laboratory
[7] = Table 2, NIMH-PDSP data, MPA = Missed primary assay threshold of 50% inhibition

T1 sequence (P14416 whole entry): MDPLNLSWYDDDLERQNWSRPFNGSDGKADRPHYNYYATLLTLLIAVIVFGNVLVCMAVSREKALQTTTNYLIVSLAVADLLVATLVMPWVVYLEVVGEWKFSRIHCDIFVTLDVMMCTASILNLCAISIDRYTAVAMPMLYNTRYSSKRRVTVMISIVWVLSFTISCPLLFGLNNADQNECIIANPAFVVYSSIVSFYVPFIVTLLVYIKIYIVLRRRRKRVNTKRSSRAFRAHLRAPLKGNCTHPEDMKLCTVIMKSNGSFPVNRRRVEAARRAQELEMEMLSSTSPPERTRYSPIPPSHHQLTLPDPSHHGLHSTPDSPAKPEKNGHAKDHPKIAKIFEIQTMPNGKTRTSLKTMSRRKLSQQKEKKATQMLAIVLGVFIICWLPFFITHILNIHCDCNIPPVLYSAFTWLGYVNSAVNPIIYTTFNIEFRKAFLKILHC
Chain of D3 receptor (P35462 whole entry): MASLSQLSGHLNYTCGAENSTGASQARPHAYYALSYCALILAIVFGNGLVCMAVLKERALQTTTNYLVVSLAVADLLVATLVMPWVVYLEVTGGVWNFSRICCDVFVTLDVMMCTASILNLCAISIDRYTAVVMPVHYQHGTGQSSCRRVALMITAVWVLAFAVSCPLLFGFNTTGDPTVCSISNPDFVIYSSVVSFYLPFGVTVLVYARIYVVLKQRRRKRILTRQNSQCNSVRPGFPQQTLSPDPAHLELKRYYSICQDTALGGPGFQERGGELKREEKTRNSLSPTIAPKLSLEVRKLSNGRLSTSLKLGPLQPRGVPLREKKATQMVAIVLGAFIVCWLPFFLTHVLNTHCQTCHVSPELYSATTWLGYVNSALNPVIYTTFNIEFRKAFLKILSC

Compound: Clc1ccc(N2C3CCC2CN(Cc2c[nH]c4ncccc24)CC3)cc1 (stereo not drawn) [Compound 9, 3-[(1H-pyrrolo[2,3-b]pyridin-3-yl)methyl]-9-(4-chlorophenyl)-3,9-diazabicyclo[4.2.1]nonane]
D2/D4 (D4 receptor [3]): >17 | Ki (D4 receptor [3]): 584 ± 115 nM | Ki (D2 receptor [1]): > 10000 nM | Ki (D3 receptor): 335 ± 178 nM

Compound: O=C(CCCN1CCN(c2ccc(Cl)cc2)CC1)c1ccc(F)cc1 [Compound 1]
D4 selectivity (D4 receptor [4]): 15 fold | fold D2 potency conferred by butyrophenone (compound 1 vs L745,870) (D2 receptor [5]): < 4 fold

Compound: Clc1ccc(N2CCCN(Cc3c[nH]c4ncccc34)CC2)cc1 [Compound 7, 3-{[4-(4-chlorophenyl)-1,4-diazepan-1-yl]methyl}-1H-pyrrolo[2,3-b]pyridine, HCl]
fold lower affinity for the D4 receptor than compound 6 (D4 receptor [2]; same assay procedure in the same laboratory): 3 fold | fold lower affinity for the D2 receptor than compound 6 (D2 receptor [6]): 7 fold

Further lines, results first:

Ki ± SEM, D2 (D2 receptor [1]; [7]): MPA | Ki ± SEM, D3 (D3 receptor; [7]): MPA
Compound: OC1(c2ccc(Cl)cc2)CCN(Cc2c[nH]c3ncccc23)C1 (stereo not drawn) [Compound 13, 3-(4-chlorophenyl)-1-(1H-pyrrolo[2,3-b]pyridin-3-ylmethyl)pyrrolidin-3-ol]

D2/D4 (D4 receptor [2]): 21
Compound: c1cnc(N2CCN(Cc3c[nH]c4ncccc34)CC2)nc1 [Compound 15, 3-{(4-(pyrimidin-2-yl)piperazin-1-yl)methyl}-1H-pyrrolo[2,3-b]pyridine]

D2/D4 (D4 receptor [2]): 0.33
Compound: O=C(CCCN1CC2CC1N(c1ccc(Cl)cc1)C2)c1ccc(F)cc1 (stereo not drawn) [Compound 10]
